Columns and labels:
Type in all cases: in vivo
[1] = system: Anthonomus grandis; experiment: Action on Boll Weevil (Anthonomus grandis); conditions: 800 ppm; egg and larval mortality; 5 days
Experimental: Example B3: Action on Boll Weevil (Anthonomus grandis)
For evaluating control of boll weevil (Anthonomus grandis) the test unit consisted of 96-well-microtiter plates containing an insect diet and 5-10 A. grandis eggs.
The compounds were formulated using a solution containing 75% (v/v) water and 25% (v/v) DMSO. Different concentrations of formulated compounds were sprayed onto the insect diet at 5 μl, using a custom-built micro atomizer, at two replications.
After application, microtiter plates were incubated at about 25±1 °C and about 75±5% relative humidity for 5 days. Egg and larval mortality were then visually assessed.

[2] = system: Heliothis virescens; experiment: Action on Tobacco Budworm (Heliothis virescens); conditions: 800 ppm; egg and larval mortality; 5 days
Experimental: Example B5: Action on Tobacco Budworm (Heliothis virescens)
For evaluating control of tobacco budworm (Heliothis virescens) the test unit consisted of 96-well-microtiter plates containing an insect diet and 15-25 H. virescens eggs.
The compounds were formulated using a solution containing 75% v/v water and 25% v/v DMSO. Different concentrations of formulated compounds were sprayed onto the insect diet at 10 μl, using a custom-built micro atomizer, at two replications.
After application, microtiter plates were incubated at about 28±1 °C and about 80±5% relative humidity for 5 days. Egg and larval mortality were then visually assessed.

[3] = system: Plutella xylostella; experiment: Action on Diamond Back Moth (Plutella xylostella), cabbage leaf dip, 3rd instar larvae; conditions: 300 ppm; 3rd instar larvae; 72 hours after treatment
Experimental: Example B6: Action on Diamond Back Moth (Plutella xylostella)
The active compound is dissolved at the desired concentration in a mixture of 1:1 (v/v) distilled water:acetone. Surfactant (Kinetic® HV) is added at a rate of 0.01% (v/v). The test solution is prepared at the day of use.
Leaves of cabbage were dipped in test solution and air-dried. Treated leaves were placed in petri dishes lined with moist filter paper and inoculated with ten 3rd instar larvae. Mortality was recorded 72 hours after treatment. Feeding damages were also recorded using a scale of 0-100%.
(§1) Compounds disclosed in the document WO2021013561 were prepared according to procedures described therein and their pesticidal activities were determined by procedure analogues to the procedures as described above in examples B6 and B7.

[4] = system: Spodoptera eridania; experiment: Action on Southern Armyworm (Spodoptera eridania), 2nd Instar Larvae; conditions: 300 ppm; 2nd instar larvae; 4 days after treatment
Experimental: Example B7: Action on Southern Armyworm (Spodoptera eridania), 2nd Instar Larvae
The active compounds were formulated by a Tecan liquid handler in 100% cyclohexanone as a 10,000 ppm solution supplied in tubes. The 10,000 ppm solution was serially diluted in 100% cyclohexanone to make interim solutions. These served as stock solutions for which final dilutions were made by the Tecan in 50% acetone: 50% water (v/v) into 10 or 20 ml glass vials. A nonionic surfactant (Kinetic®) was included in the solution at a volume of 0.01% (v/v). The vials were then inserted into an automated electrostatic sprayer equipped with an atomizing nozzle for application to plants/insects.
Lima bean plants (variety Sieva) were grown 2 plants to a pot and selected for treatment at the 1st true leaf stage. Test solutions were sprayed onto the foliage by an automated electrostatic plant sprayer equipped with an atomizing spray nozzle. The plants were dried in the sprayer fume hood and then removed from the sprayer. Each pot was placed into perforated plastic bags with a zip closure. About 10 to 11 armyworm larvae were placed into the bag and the bags zipped closed. Test plants were maintained in a growth room at about 25 °C and about 20-40% relative humidity for 4 days, avoiding direct exposure to fluorescent light (24 hour photoperiod) to prevent trapping of heat inside the bags. Mortality and reduced feeding were assessed 4 days after treatment, compared to untreated control plants.
as §1

[5] = system: Aedes aegypti; experiment: whole plant or invertebrate; conditions: 800 ppm; larvae; 2 days
Experimental: Example B1: Action on Yellow Fever Mosquito (Aedes aegypti)
For evaluating control of yellow fever mosquito (Aedes aegypti) the test unit consisted of 96-well-microtiter plates containing 200 μl of tap water per well and 5-15 freshly hatched A. aegypti larvae.
The active compounds or mixtures were formulated using a solution containing 75% (v/V) water and 25% (v/v) DMSO. Different concentrations of formulated compounds or mixtures were sprayed onto the insect diet at 2.5 μl, using a custom-built micro atomizer, at two replications. For experimental mixtures in these tests identical volumes of both mixing partners at the desired concentrations respectively, were mixed together.
After application, microtiter plates were incubated at 28±1 °C, 80±5% RH for 2 days. Larval mortality was then visually assessed.

Compound: Cc1ccc(C(C)C)c(N2C(=O)CSC2=NC(=O)Nc2ccc(-n3cc(NC(=O)c4ccc(C5(F)COC5)cc4)c(C)n3)cc2)c1 [Example C-77]
- mortality in comparison with untreated controls [1]: at least 75%
- mortality in comparison with untreated controls [2]: at least 75%
- mortality in comparison with untreated controls [3]: at least 75%

Compound: Cc1ccc(C(C)C)c(N2C(=O)CSC2=NC(=O)Nc2ccc(-n3cc(NC(=O)c4ccc(OCC#N)cc4)c(C)n3)cc2)c1 [Example C-76]
- mortality in comparison with untreated controls [1]: at least 75%
- mortality in comparison with untreated controls [2]: at least 75%
- mortality in comparison with untreated controls [3]: at least 75%
- mortality in comparison with untreated controls [4]: at least 75%

Compound: Cc1ccc(C(C)C)c(N2C(=O)CSC2=NC(=O)Nc2ccc(-n3cc(NC(=O)c4ccc(OC(F)(F)F)cc4)c(C)n3)cc2Cl)c1 [Example C-131]
- mortality in comparison with untreated controls [4]: at least 75%

Compound: Cc1ccc(C(C)C)c(N2C(=O)CSC2=NC(=O)Nc2ccc(-n3cc(NC(=O)c4ccc(C5(C)COC5)cc4)c(C)n3)cc2)c1 [Example C-92]
- mortality in comparison with untreated controls [1]: at least 75%
- mortality in comparison with untreated controls [2]: at least 75%
- mortality in comparison with untreated controls [3]: at least 75%

Compound: Cc1ccc(C(C)C)c(N2C(=O)CSC2=NC(=O)Nc2ccc(-n3nc(C)c(NC(=O)c4ccc(F)cc4)c3C)cc2Cl)c1 [Example C-124]
- mortality in comparison with untreated controls [4]: at least 75%

Compound: Cc1ccc(C(C)C)c(N2C(=O)CSC2=NC(=O)Nc2ccc(-n3cc(NC(=O)c4ccc(C#CC5CC5)cc4)c(C)n3)cc2)c1 [Example C-72]
- mortality in comparison with untreated controls [2]: at least 75%

Compound: Cc1ccc(C(C)C)c(N2C(=O)CSC2=NC(=O)Nc2ccc(-n3cc(NC(=O)c4ccc(N(C)C)cc4)c(C)n3)cc2)c1 [Example C-75]
- mortality in comparison with untreated controls [1]: at least 75%
- mortality in comparison with untreated controls [2]: at least 75%
- mortality in comparison with untreated controls [3]: at least 75%
- mortality in comparison with untreated controls [4]: at least 75%

Compound: Cc1ccc(C(C)C)c(N2C(=O)CSC2=NC(=O)Nc2ccc(-n3cc(NC(=O)c4cnc(C#N)nc4)c(C)n3)cc2)c1 [Example C-84]
- mortality in comparison with untreated controls [3]: at least 75%

Compound: Cc1ccc(C(C)C)c(N2C(=O)CSC2=NC(=O)Nc2ccc(-n3cc(NC(=O)c4ccc(C(C)C)cc4)c(C)n3)cc2)c1 [Example C-70]
- mortality in comparison with untreated controls [5]: at least 50%
- mortality in comparison with untreated controls [2]: at least 75%
- mortality in comparison with untreated controls [3]: at least 75%

Compound: Cc1ccc(C(C)C)c(N2C(=O)CSC2=NC(=O)Nc2ccc(-n3cc(NC(=O)c4ccc(S(C)(=O)=O)cc4F)c(C)n3)cc2)c1 [Example C-91]
- mortality in comparison with untreated controls [1]: at least 75%
- mortality in comparison with untreated controls [2]: at least 75%
- mortality in comparison with untreated controls [3]: at least 75%
- mortality in comparison with untreated controls [4]: at least 75%

Compound: CSc1ccc(C(=O)Nc2cn(-c3ccc(NC(=O)N=C4SCC(=O)N4c4cc(C)ccc4C(C)C)cc3)nc2C)cc1 [Example C-83]
- mortality in comparison with untreated controls [5]: at least 50%
- mortality in comparison with untreated controls [1]: at least 75%
- mortality in comparison with untreated controls [2]: at least 75%
- mortality in comparison with untreated controls [3]: at least 75%

Compound: Cc1ccc(C(C)C)c(N2C(=O)CSC2=NC(=O)Nc2ccc(-n3cc(NC(=O)c4ccc(CC#N)cc4)c(C)n3)cc2)c1 [Example C-78]
- mortality in comparison with untreated controls [1]: at least 75%
- mortality in comparison with untreated controls [2]: at least 75%
- mortality in comparison with untreated controls [3]: at least 75%
- mortality in comparison with untreated controls [4]: at least 75%

Compound: Cc1ccc(C(C)C)c(N2C(=O)CSC2=NC(=O)Nc2ccc(-n3cc(NC(=O)c4ccc(C5(C#N)CC5)cc4)c(C)n3)cc2)c1 [Example C-86]
- mortality in comparison with untreated controls [2]: at least 75%
- mortality in comparison with untreated controls [3]: at least 75%
- mortality in comparison with untreated controls [4]: at least 75%

Compound: C=Cc1ccc(C(=O)Nc2cn(-c3ccc(NC(=O)N=C4SCC(=O)N4c4cc(C)ccc4C(C)C)cc3)nc2C)cc1 [Example C-87]
- mortality in comparison with untreated controls [5]: at least 50%
- mortality in comparison with untreated controls [1]: at least 75%
- mortality in comparison with untreated controls [2]: at least 75%
- mortality in comparison with untreated controls [3]: at least 75%

Compound: CC(=O)c1ccc(C(=O)Nc2cn(-c3ccc(NC(=O)N=C4SCC(=O)N4c4cc(C)ccc4C(C)C)cc3)nc2C)cc1 [Example C-69]
- mortality in comparison with untreated controls [4]: at least 75%

Compound: Cc1ccc(C(C)C)c(N2C(=O)CSC2=NC(=O)Nc2ccc(-n3cc(NC(=O)c4ccc(C5CC5(Cl)Cl)cc4)c(C)n3)cc2)c1 (racemic) [Example C-89]
- mortality in comparison with untreated controls [2]: at least 75%
- mortality in comparison with untreated controls [3]: at least 75%
- mortality in comparison with untreated controls [4]: at least 75%

Compound: Cc1ccc(C(C)C)c(N/C(=N/C(=O)Nc2ccc(-n3cc(NC(=O)c4ccc(OC(F)(F)F)cc4)c(C)n3)cc2)SCOC(=O)C(C)C)c1 [Example C-129]
- mortality in comparison with untreated controls [5]: at least 50%
- mortality in comparison with untreated controls [1]: at least 75%
- mortality in comparison with untreated controls [2]: at least 75%
- mortality in comparison with untreated controls [3]: at least 75%

Compound: COC(C)(C)c1ccc(C(=O)Nc2cn(-c3ccc(NC(=O)N=C4SCC(=O)N4c4cc(C)ccc4C(C)C)cc3)nc2C)cc1 [Example C-61]
- mortality in comparison with untreated controls [2]: at least 75%
- mortality in comparison with untreated controls [3]: at least 75%

Compound: Cc1ccc(C(C)C)c(N2C(=O)CS/C2=N\C(=O)Nc2ccc(-n3cc(NC(=O)c4ccc(C#N)cc4)c(C)n3)cc2)c1 [Example C-33]
- mortality in comparison with untreated controls [1]: at least 75%
- mortality in comparison with untreated controls [2]: at least 75%
- mortality in comparison with untreated controls [3]: at least 75%
- mortality in comparison with untreated controls [4]: at least 75%

Compound: Cc1ccc(C(C)C)c(N2C(=O)CSC2=NC(=O)Nc2ccc(-n3cc(NC(=O)c4ccc(C#N)nc4)c(C)n3)cc2)c1 [Example C-90]
- mortality in comparison with untreated controls [1]: at least 75%
- mortality in comparison with untreated controls [3]: at least 75%

Compound: Cc1ccc(C(C)C)c(N2C(=O)CSC2=NC(=O)Nc2ccc(-n3cc(NC(=O)c4ccc(Cl)cc4Cl)c(C)n3)cc2Cl)c1 [Example C-132]
- mortality in comparison with untreated controls [4]: at least 75%

Compound: CCOc1ccc(C(=O)Nc2cn(-c3ccc(NC(=O)N=C4SCC(=O)N4c4cc(C)ccc4C(C)C)cc3)nc2C)cc1 [Example C-85]
- mortality in comparison with untreated controls [2]: at least 75%
- mortality in comparison with untreated controls [3]: at least 75%
- mortality in comparison with untreated controls [4]: at least 75%
